Patent US7645882B2, “Inhibitor of protein modification products formation” (priority 2003, dated 2010)

Key:
pentosidine [1] = assay: Pentosidine formation inhibiting effect in plasma of hemodialysis patients; type: biochemical, human; details: plasma from hemodialysis patients, final concentration 0.8, 2.0, 5.0 mM, 37° C. for one week; compared to pyridoxamine as positive control
Procedure: Fresh heparinized plasma samples were obtained after informed consent from hemodialysis patients prior to the dialysis session, and filtrated and sterilized. To the plasma (450 μL), there was added the solution of TM-2002 in dimethylsurphoxide (50 μL) (final concentration: 0.8, 2.0, 5.0 mM) incubated at 37° C. for one week. Then, the amount of pentosidine was measured.
Measurement of the amount of pentosidine was made as follows: to each incubated sample (50 μL) was added an equal volume of 10% trichloroacetic acid, followed by centrifugation at 5000 g for 5 minutes; after removal of the supernatant, the pellet was washed by 5% trichloroacetic acid (300 μL); the pellet was dried under reduced pressure and then subjected to hydrolysis in 6N HCl solution (100 μL) at 110° C. under nitrogen atmosphere for 16 hours; to the hydrolysate, 5N NaOH (100 μL) and 0.5 M phosphate buffer (pH 7.4) (200 μL) were added, followed by filtration through a porefilter with a pore size of 0.5 μm and dilution with PBS. The concentration of free pentosidine was determined by reversed-phase HPLC using a fluorescence detector (Miyata, T. et al.: Proc. Natl. Acad. Sci. USA, Vol. 93, p. 2353-2358, 1996). The effluent was monitored at 335/385 nm of excitation/emission wavelength. Synthetic pentosidine was used as the standard. The detection limit of pentosidine was 0.1 pmol/mg protein. […]

pentosidine [2] = assay: Pentosidine production inhibiting effect with BSA and arabinose; type: biochemical; details: BSA and arabinose instead of plasma
Summary of the method: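 Heparinized hemodialysis-patient plasma (replaced here by BSA plus arabinose) incubated with compound at 0.8, 2.0, 5.0 mM final, 37 °C, one week. Protein TCA-precipitated, hydrolysed in 6N HCl at 110 °C for 16 h; free pentosidine quantified by reversed-phase HPLC with fluorescence (ex/em 335/385 nm) against synthetic standard.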

[3] = tested on: Thy-1 nephritis model rat; assay: Renal protective effect on Thy-1 nephritis model rat; type: in vivo; details: 50 mg/kg twice daily by sonde, 5 days
Procedure: 1.2 mg/kg of OX-7, anti Thy-1 antibody, was administered to wistar rat (male, body weight 150 g, 6 weeks aged) in caudal vein to prepare typical glomerulonephritis model with mesangial nephritis. After the administration of anti Thy-1 antibody, test compound (TM-2002, 50 mg/kg body weight, twice a daily) was suspended in 0.5% carboxymethylcellulose, was coercively administered 5 days continuously using sonde, on sixth day sampled, kidney was obtained, and analysed pathologically (count the number of glomerular cells). In particular, cells were stained by PAS according to conventional method, the stained image was captured by 3CCD camera (Olympus), and then analyzed using softwares, Image Graver PCI (FUJI shashin film) and Mac Aspect (Mitani kabushiki kaisha). Also, biochemical analysis of blood and urine was carried out (contract clinical analysis organization: SRL).

[4] = Solubility test at different pH; type: physicochemical; details: for condition of the solution: 10 mg per 1 ml purified water
Procedure: TM-2002 was added in purified water to be 10 mg per 1 ml and added hydrochloride to adjust to pH 2.0 and solved. Then, this solution was adjusted to pH 7.0, 8.0 and 2,0 (unadjust) by 1N sodium hydrate to prepare 3 solutions. These solutions were put on warming, dark cold place and after 24 hours, conditions of the solutions were observed. […] As the result, stable TM-2002 injectable formulation in its solubility may be prepared by keeping acidic condition using inorganic acid such as hydrochloride, sulfuric acid, or various organic acid, or by using TM-2002 hydrochloride or sulfate as material which is made from said acids.

SHR/NDmcr-cp rats = assay: In vivo endoplasmic reticula stress alleviation, anti-ORP150 immunostaining of kidney; set-up: species or system rat; details: 100 mg/1 kg body weight by diet, 33 weeks aged
Procedure: Endoplasmic reticula stress alleviation effect by TM-2002 was examined using SHR/NDmcr-cp (Disease Model Cooperative Research Association) rats, which have been known their high blood pressure, hyperglycemia, hyperlipemia, obesity and hyperinsulinemia and renal function disorder while aging, and immunostained utilizing anti-ORP150 antibody. The stained section samples which were used for staining were prepared as following manner; SHR/NDmcr-cp rats which were administered the desired amount of test compound TM-2002 (dose: 100 mg/1 kg body weight) by diet (30 g daily), the rats which were administered no drug and SHR (hypertension) rats and Wistar Kyoto rats (control); kidney tissues of each rat were obtained after the end of drug administration period (33 weeks aged); all of tissues were fixed by Carnoy and embedded in paraffin. The staining of each samples was carried out by Catalyzed Sifnal Amplification(CSA) System (DAKO) according to their protocol. […] The samples were observed by microscopic visualization with optical microscope (Olympus) and analyzed the result. […]

Q: Which “pentosidine formation inhibiting effect” value (pentosidine [1]) does the source give for `Cc1ncc2c(c1O)C(c1c(C)nn(-c3ccccc3)c1O)OC2` (stereo not shown) [compound 68, 1-(5-hydroxy-3-methyl-1-phenyl-1H-pyrazol-4-yl)-6-methyl-1,3-dihydro-furo[3,4-c]pyridin-7-ol] here?
A: inhibits significantly pentosidine formation compared to pyridoxamine

Q: And the “Pentosidine production rate in 5 mM of medicament (%)” value (pentosidine [2])?
A: 2.82%

Q: What about the BUN value ([3]; sampled on sixth day) of the same compound?
A: improved

Q: And the urinary protein ([3]; sampled on sixth day)?
A: improved

Q: And the “number of glomerular cells” value ([3]; p<0.0001)?
A: significantly suppressed

Q: What about the “condition of the solution” value ([4]; pH 2.0, after 24 hours) of the same compound?
A: kept clear solution

Q: What about the “condition of the solution” value ([4]; pH 7.0, after 24 hours) of the same compound?
A: observed precipitate

Q: And the “condition of the solution” value ([4]; pH 8.0, after 24 hours)?
A: observed precipitate

Q: And the “change of color of the solution” value ([4]; pH 7.0 and pH 8.0 solutions, after 24 hours)?
A: the change of color was shown

Q: What about the “ORP150 positive staining site / ER stress in kidney” value (SHR/NDmcr-cp rats) of the same compound?
A: decrease of positive staining site and suppressing ER stress
